{"source": "patent US7332498B2", "about": "“Modulation of KSP kinesin activity with heterocyclic-fused pyrimidinone derivatives” (Cytokinetics, Inc., priority 2002, dated 2008)", "origin": "cited, not measured here", "data": [{"test_system": "A549 cells", "conditions": "data provided by National Cancer Institute, Developmental Therapeutic Program", "units": {"GI50": "µM"}, "values": [{"smiles": "O=c1[nH]cc(F)c(=O)[nH]1", "note": "[5-fluorouracil]", "GI50": 1}, {"smiles": "NC(=O)NO", "note": "[hydroxyurea]", "GI50": 500}, {"smiles": "COc1cccc2c1C(=O)c1c(O)c3c(c(O)c1C2=O)C[C@@](O)(C(=O)CO)C[C@@H]3O[C@H]1C[C@H](N)[C@H](O)[C@H](C)O1", "note": "[doxorubicin]", "GI50": 0.063}, {"smiles": "CC(=O)O[C@H]1C(=O)[C@@]2(C)[C@H]([C@H](OC(=O)c3ccccc3)[C@]3(O)C[C@H](OC(=O)[C@H](O)[C@@H](NC(=O)c4ccccc4)c4ccccc4)C(C)=C1C3(C)C)[C@]1(OC(C)=O)CO[C@@H]1C[C@@H]2O", "note": "[paclitaxel]", "GI50": 0.004}]}]}
